In PubChem BioAssay (NCI):
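Exposure lasted 48 hours, with cells grown in 96-well plates and compounds tested at five concentrations. GI50: concentration for 50% inhibition of growth. At the TGI there is no net growth.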

Assays:
Experiment in all cases: growth of human tumour cells (NCI), 48 h; in the data active = GI50 below about 0.43 µM; inactive = the rest
CCRF-CEM leukemia = system: CCRF-CEM leukemia
HCT-116 colon = system: HCT-116 colon
LOX IMVI melanoma = system: LOX IMVI melanoma
MALME-3M melanoma = system: MALME-3M melanoma
MDA-MB-435 = system: MDA-MB-435
NCI-H522 lung = system: NCI-H522 lung
PC-3 prostate = system: PC-3 prostate
SF-268 CNS = system: SF-268 CNS
SW-620 colon = system: SW-620 colon
UACC-62 melanoma = system: UACC-62 melanoma
786-0 renal = system: 786-0 renal
BT-549 breast = system: BT-549 breast
SN12C renal = system: SN12C renal
SR leukemia = system: SR leukemia

COc1cc(O)c2c(=O)c(OC)c(-c3ccc(OC)c(OC)c3)oc2c1
15 µM: TGI (NCI-H522 lung)
> 100 µM: TGI (CCRF-CEM leukemia) | TGI (HCT-116 colon) | TGI (LOX IMVI melanoma) | TGI (MALME-3M melanoma) | TGI (MDA-MB-435) | TGI (PC-3 prostate) | TGI (SF-268 CNS) | TGI (SW-620 colon) | TGI (UACC-62 melanoma)
inactive: GI50 (HCT-116 colon) 68.7 µM | GI50 (LOX IMVI melanoma) > 100 µM | GI50 (MALME-3M melanoma) > 100 µM | GI50 (PC-3 prostate) > 100 µM | GI50 (SF-268 CNS) > 100 µM | GI50 (UACC-62 melanoma) > 100 µM

O=c1[nH]c(Nc2nc3ccccc3[nH]2)nc(O)c1Cc1ccccc1
> 100 µM: TGI (786-0 renal) | TGI (BT-549 breast) | TGI (CCRF-CEM leukemia) | TGI (HCT-116 colon) | TGI (MALME-3M melanoma) | TGI (MDA-MB-435) | TGI (NCI-H522 lung) | TGI (PC-3 prostate) | TGI (SF-268 CNS) | TGI (SN12C renal) | TGI (SR leukemia) | TGI (SW-620 colon) | TGI (UACC-62 melanoma)

N#C/C(C(=S)NCc1ccccc1)=C(/N)N1CCCC1
> 100 µM: TGI (786-0 renal) | TGI (CCRF-CEM leukemia) | TGI (HCT-116 colon) | TGI (LOX IMVI melanoma) | TGI (MALME-3M melanoma) | TGI (MDA-MB-435) | TGI (NCI-H522 lung) | TGI (PC-3 prostate) | TGI (SF-268 CNS) | TGI (SN12C renal) | TGI (SR leukemia) | TGI (SW-620 colon) | TGI (UACC-62 melanoma)

O=C1N[C@@H]2C(=C[C@H](O)[C@@H](O)[C@H]2O)c2cc3c(c(O)c21)OCO3
0.0587 µM: TGI (UACC-62 melanoma)
0.0535 µM: TGI (MALME-3M melanoma)
0.122 µM: TGI (SN12C renal)
0.51 µM: TGI (CCRF-CEM leukemia)
0.065 µM: TGI (LOX IMVI melanoma)
0.0569 µM: TGI (HCT-116 colon)
0.116 µM: TGI (SF-268 CNS)
2.67 µM: TGI (SW-620 colon)

COc1cccc(C(=O)C#Cc2cnc(OC)nc2OC)c1
3.61 µM: TGI (786-0 renal)
2.88 µM: TGI (PC-3 prostate)
3.08 µM: TGI (UACC-62 melanoma)
3.23 µM: TGI (MALME-3M melanoma)
5.24 µM: TGI (MDA-MB-435)
0.762 µM: TGI (NCI-H522 lung)
7.67 µM: TGI (HCT-116 colon)
1.94 µM: TGI (SW-620 colon)
0.25 µM: TGI (LOX IMVI melanoma)
6.14 µM: TGI (SF-268 CNS)
2.63 µM: TGI (BT-549 breast)
2 µM: TGI (SN12C renal)

COc1cc(Nc2nc3cc(C(F)(F)F)ccc3n3cccc23)cc(OC)c1OC
> 100 µM: TGI (BT-549 breast) | TGI (CCRF-CEM leukemia) | TGI (HCT-116 colon) | TGI (MALME-3M melanoma) | TGI (MDA-MB-435) | TGI (NCI-H522 lung) | TGI (PC-3 prostate) | TGI (SF-268 CNS) | TGI (SN12C renal) | TGI (SW-620 colon) | TGI (UACC-62 melanoma)

CCOC(=O)C1CCCCN1C(=O)Cc1c[nH]c2ccccc12 (stereo not drawn)
> 100 µM: TGI (786-0 renal) | TGI (BT-549 breast) | TGI (CCRF-CEM leukemia) | TGI (HCT-116 colon) | TGI (LOX IMVI melanoma) | TGI (MALME-3M melanoma) | TGI (MDA-MB-435) | TGI (NCI-H522 lung) | TGI (PC-3 prostate) | TGI (SF-268 CNS) | TGI (SN12C renal) | TGI (SW-620 colon) | TGI (UACC-62 melanoma)

O=c1[nH]nc(-c2ccccc2)n1O
> 100 µM: TGI (786-0 renal) | TGI (CCRF-CEM leukemia) | TGI (HCT-116 colon) | TGI (LOX IMVI melanoma) | TGI (MALME-3M melanoma) | TGI (MDA-MB-435) | TGI (NCI-H522 lung) | TGI (PC-3 prostate) | TGI (SF-268 CNS) | TGI (SN12C renal) | TGI (SR leukemia) | TGI (SW-620 colon) | TGI (UACC-62 melanoma)

COC(=O)Cc1c(-c2c(CC(=O)OC)c3ccccc3n2C2OC(COC(C)=O)C(OC(C)=O)C(OC(C)=O)C2OC(C)=O)[nH]c2ccccc12 (stereo not drawn)
> 100 µM: TGI (BT-549 breast) | TGI (CCRF-CEM leukemia) | TGI (HCT-116 colon) | TGI (MALME-3M melanoma) | TGI (MDA-MB-435) | TGI (NCI-H522 lung) | TGI (PC-3 prostate) | TGI (SF-268 CNS) | TGI (SN12C renal) | TGI (SR leukemia) | TGI (SW-620 colon) | TGI (UACC-62 melanoma)

CN1CCN(P2(=S)Oc3ccc4ccccc4c3-c3c(ccc4ccccc34)O2)CC1
> 100 µM: TGI (CCRF-CEM leukemia) | TGI (HCT-116 colon) | TGI (SF-268 CNS) | TGI (SN12C renal) | TGI (SW-620 colon) | TGI (UACC-62 melanoma)
39.6 µM: TGI (LOX IMVI melanoma)
50.8 µM: TGI (MALME-3M melanoma)
64 µM: TGI (NCI-H522 lung)

COC(=O)C(=O)Cc1nc2ccccc2o1
> 100 µM: TGI (CCRF-CEM leukemia) | TGI (HCT-116 colon) | TGI (LOX IMVI melanoma) | TGI (MALME-3M melanoma) | TGI (NCI-H522 lung) | TGI (SF-268 CNS) | TGI (SN12C renal) | TGI (SR leukemia) | TGI (UACC-62 melanoma)

O=NN(CCF)C(=O)NC1CCSCC1
> 100 µM: TGI (CCRF-CEM leukemia) | TGI (HCT-116 colon) | TGI (LOX IMVI melanoma) | TGI (MALME-3M melanoma) | TGI (NCI-H522 lung) | TGI (SF-268 CNS) | TGI (SN12C renal) | TGI (SW-620 colon) | TGI (UACC-62 melanoma)

O=C(c1ccco1)N(C(=O)N1CCN(c2ccccc2)CC1)S(=O)(=O)c1ccccc1
56.3 µM: TGI (MDA-MB-435)
51.4 µM: TGI (SR leukemia)
99.8 µM: TGI (MALME-3M melanoma)
41.2 µM: TGI (NCI-H522 lung)
87.6 µM: TGI (BT-549 breast) | TGI (CCRF-CEM leukemia)
82 µM: TGI (UACC-62 melanoma)
> 100 µM: TGI (786-0 renal) | TGI (PC-3 prostate) | TGI (SF-268 CNS) | TGI (SW-620 colon)
44 µM: TGI (HCT-116 colon)
61.9 µM: TGI (SN12C renal)

CCN(CCN(CC)C(=O)Nc1ccccc1)C(=O)Nc1ccccc1
> 100 µM: TGI (786-0 renal) | TGI (BT-549 breast) | TGI (CCRF-CEM leukemia) | TGI (HCT-116 colon) | TGI (LOX IMVI melanoma) | TGI (MALME-3M melanoma) | TGI (NCI-H522 lung) | TGI (PC-3 prostate) | TGI (SF-268 CNS) | TGI (SN12C renal) | TGI (SR leukemia) | TGI (SW-620 colon) | TGI (UACC-62 melanoma)

NC(Cc1ccc(S(=O)(=O)O)cc1)C(=O)NC(Cc1ccc(S(=O)(=O)O)cc1)C(=O)NC(Cc1ccc(S(=O)(=O)O)cc1)C(=O)NC(Cc1ccc(S(=O)(=O)O)cc1)C(=O)O (stereo not drawn)
> 100 µM: TGI (786-0 renal) | TGI (BT-549 breast) | TGI (CCRF-CEM leukemia) | TGI (HCT-116 colon) | TGI (LOX IMVI melanoma) | TGI (MALME-3M melanoma) | TGI (MDA-MB-435) | TGI (NCI-H522 lung) | TGI (PC-3 prostate) | TGI (SF-268 CNS) | TGI (SN12C renal) | TGI (SW-620 colon) | TGI (UACC-62 melanoma)

CC[C@@]1(O)C(=O)OCc2c1cc1n(c2=O)Cc2c-1nc1ccccc1c2/C=N\NC(=O)C(N)CCSC (stereo partly drawn)
0.925 µM: TGI (SN12C renal)
1.55 µM: TGI (SF-268 CNS)
0.0368 µM: TGI (LOX IMVI melanoma)
2.02 µM: TGI (NCI-H522 lung)
< 0.0397 µM: TGI (SR leukemia)
> 100 µM: TGI (CCRF-CEM leukemia) | TGI (PC-3 prostate)
3.58 µM: TGI (MDA-MB-435)
14.5 µM: TGI (MALME-3M melanoma)
> 41.1 µM: TGI (SW-620 colon)
1.92 µM: TGI (786-0 renal)
< 0.043 µM: TGI (UACC-62 melanoma)
1.58 µM: TGI (HCT-116 colon)

O=C(O)c1ccccc1N=Nc1c(O)c(S(=O)(=O)O)cc2cc(S(=O)(=O)O)ccc12
> 100 µM: TGI (786-0 renal) | TGI (CCRF-CEM leukemia) | TGI (HCT-116 colon) | TGI (LOX IMVI melanoma) | TGI (MDA-MB-435) | TGI (PC-3 prostate) | TGI (SF-268 CNS) | TGI (SN12C renal) | TGI (SR leukemia) | TGI (SW-620 colon) | TGI (UACC-62 melanoma)

CC1CC(C#N)=C2NCCN2C1=O (stereo not drawn)
50.1 µM: TGI (MDA-MB-435)
> 100 µM: TGI (786-0 renal) | TGI (BT-549 breast) | TGI (CCRF-CEM leukemia) | TGI (LOX IMVI melanoma) | TGI (MALME-3M melanoma) | TGI (NCI-H522 lung) | TGI (PC-3 prostate) | TGI (SF-268 CNS) | TGI (SN12C renal) | TGI (SR leukemia) | TGI (SW-620 colon)
